We go through three molecules from PMC7206614, “Photoswitchable ORG25543 Congener Enables Optical Control of Glycine Transporter 2” (ACS Chemical Neuroscience, 2020).

“Also recorded” adds a separate entry of the source.

Series [1] deals with T1, GlyT2 (Homo sapiens, UniProt Q9Y345).
T1 construct: expressed in transfected cells; host or cells: Xenopus laevis oocytes injected with in vitro transcribed RNA
T1 sequence (Q9Y345 1-797): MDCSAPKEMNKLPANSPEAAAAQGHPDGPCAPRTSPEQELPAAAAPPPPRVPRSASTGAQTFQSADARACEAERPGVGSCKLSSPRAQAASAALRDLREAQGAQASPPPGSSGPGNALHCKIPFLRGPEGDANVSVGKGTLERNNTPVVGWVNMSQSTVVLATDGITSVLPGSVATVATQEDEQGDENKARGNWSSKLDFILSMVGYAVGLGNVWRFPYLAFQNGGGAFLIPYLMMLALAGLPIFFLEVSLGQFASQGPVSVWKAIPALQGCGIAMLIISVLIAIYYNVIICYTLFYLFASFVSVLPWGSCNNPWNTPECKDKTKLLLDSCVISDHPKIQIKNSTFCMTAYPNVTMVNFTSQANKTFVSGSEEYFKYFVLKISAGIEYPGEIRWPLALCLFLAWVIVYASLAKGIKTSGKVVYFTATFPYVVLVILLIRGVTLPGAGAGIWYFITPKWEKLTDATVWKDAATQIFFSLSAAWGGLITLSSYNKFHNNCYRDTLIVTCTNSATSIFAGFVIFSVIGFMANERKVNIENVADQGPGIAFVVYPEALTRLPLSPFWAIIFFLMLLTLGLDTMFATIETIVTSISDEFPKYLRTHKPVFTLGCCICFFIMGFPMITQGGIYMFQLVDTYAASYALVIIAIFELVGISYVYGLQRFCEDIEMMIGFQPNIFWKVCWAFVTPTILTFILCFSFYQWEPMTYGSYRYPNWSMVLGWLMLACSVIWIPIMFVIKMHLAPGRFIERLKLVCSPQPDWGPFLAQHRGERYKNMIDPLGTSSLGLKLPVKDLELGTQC
Put plainly: Two-electrode voltage clamp of glycine transport currents in Xenopus laevis oocytes expressing GlyT2. It counts as cell-based. As to conditions: for reversibility: restoration of glycine transport currents after washout: inhibition at IC50 concentrations (1: 4 nM, 2: 50 nM), washed with ND96 for 30 min, glycine reapplied at 5 min intervals; for IC50: oocytes expressing GlyT2, Figure 4A, range in brackets, read-out: IC50, reduction of glycine transport currents.

Series [2] deals with GlyT2. Also noted: method as in PMID 23962079. As to conditions: cited from earlier work; for IC50: two-electrode voltage clamp, Xenopus laevis oocytes expressing GlyT2, read-out: IC50 at GlyT2 (potency); for reversibility of GlyT2 inhibition: washout from oocytes expressing GlyT2.
Series [3] deals with rodent models of neuropathic pain. As to conditions: cited from earlier work.
For series [4], the system named is mouse spinal cord slices. Also noted: method as in PMID 15235081. As to conditions: exposure of mouse spinal cord slices for >10 min; cited from earlier work.
Series [5] deals with rodents. To be noted: cited from earlier work.
Details of series [6]: method as in PMID 23962079. To be noted: cited from earlier work.

As for `COc1cc(C(=O)NCC2(N(C)C)CCCC2)cc(OC)c1OCc1ccccc1` [ORG25543], in series [1], the “reversibility: restoration of glycine transport currents after washout” value is on record as “no reversibility” and the half-maximal inhibitory concentration (IC50) turned out to be 3.76 nM. Moreover, in series [2], the IC50 is 20 nM and the “reversibility of GlyT2 inhibition” value is listed as “irreversible; also recorded: cannot be restored”. Besides, the “effect on neuropathic pain (hyperalgesia and allodynia)” value in series [3] is “ameliorates both hallmarks of neuropathic pain”. Besides, the “effect on inhibitory postsynaptic currents” value in series [4] is “long-term reduction of inhibitory postsynaptic currents”. Further, in series [5], the “toxicity on acute dosing in rodents” value was “excitotoxicity, hyperekplexia-like symptoms, and in severe cases death”.
With `COc1cc(C(=O)NCC2(N(C)C)CCCCC2)ccc1OCc1ccccc1` [compound 2], in series [1], the “reversibility: restoration of glycine transport currents after washout” value is “restoration of glycine transport currents” and the IC50 was 48.5 nM. For the same molecule, in series [2], the IC50 was 100 nM and the “reversibility of GlyT2 inhibition” value is reported as “readily reversible; also recorded: allows for restoration of glycine currents”. For the same molecule, the “analgesia in rodent models of neuropathic pain” value in series [3] is “produced analgesia”. The “blood brain barrier permeability” value in series [6] is reported as “blood brain barrier permeable”. Further, the adverse side effects result in series [5] (rodent) is reported as “no adverse side effects”.
`NCC(=O)O` [glycine] yielded an EC50 in series [1] of 14300 nM.
